The text below walks through data of patent US11065311B2, “Retroviral vector with mini-promoter cassette” (DENOVO BIOPHARMA LLC, priority 2012, dated 2021).

This data set has as its system U87 cells. As to conditions: MTS. The protocol: Cell were seeded at 3E3 cells in 96-well plates the day before. At 24 hour post cell seeding, PALA at 0.00975, 0.039, 0.156, 0.625, 2.5, 10, 40 and 160 uM were added to the culture for 5 consecutive days followed by an MTS assay to determine the cell viability. […] A range of cytosine concentrations (0.2, 1, 5 10 mM) in culture was also determined by performing the same experiment described above.

On to `Nc1cc[nH]c(=O)n1` [cytosine], for which, where the note is “0.2, 1, 5 10 mM cytosine in culture”, the “tolerance of cells to cytosine” value is listed as “tolerate cytosine in all concentrations tested”. With N-(phosphonacetyl)-L-aspartate [PALA], the IC50 (read-out: ICH of PALA, naive U87, U87 with pAC3-yCD2 and with pAC3.S1-yCD2, 5 consecutive days) was in the range of 8 to 30 µM.
